Data as given in US20060063759A1, “Tricyclic steroid hormone nuclear receptor modulators” (priority 2002, published 2006).

Columns and labels:
human MR = target: T1, human MR (Homo sapiens, UniProt P08235); assay: Mineralocorticoid Receptor Binding Assay ([3H]-aldosterone); conditions: [3H]-aldosterone binding, human MR expressed in Sf9 cells; read-out: MR Ki
T1 construct: The full length human MR gene is cloned from a human kidney or human brain cDNA library; His tag from the pAcHLT vector (own knowledge); made in house; host or cells: Sf9 insect cells (baculovirus, pAcHLT transfer vector)
T1 sequence (P08235 1-984): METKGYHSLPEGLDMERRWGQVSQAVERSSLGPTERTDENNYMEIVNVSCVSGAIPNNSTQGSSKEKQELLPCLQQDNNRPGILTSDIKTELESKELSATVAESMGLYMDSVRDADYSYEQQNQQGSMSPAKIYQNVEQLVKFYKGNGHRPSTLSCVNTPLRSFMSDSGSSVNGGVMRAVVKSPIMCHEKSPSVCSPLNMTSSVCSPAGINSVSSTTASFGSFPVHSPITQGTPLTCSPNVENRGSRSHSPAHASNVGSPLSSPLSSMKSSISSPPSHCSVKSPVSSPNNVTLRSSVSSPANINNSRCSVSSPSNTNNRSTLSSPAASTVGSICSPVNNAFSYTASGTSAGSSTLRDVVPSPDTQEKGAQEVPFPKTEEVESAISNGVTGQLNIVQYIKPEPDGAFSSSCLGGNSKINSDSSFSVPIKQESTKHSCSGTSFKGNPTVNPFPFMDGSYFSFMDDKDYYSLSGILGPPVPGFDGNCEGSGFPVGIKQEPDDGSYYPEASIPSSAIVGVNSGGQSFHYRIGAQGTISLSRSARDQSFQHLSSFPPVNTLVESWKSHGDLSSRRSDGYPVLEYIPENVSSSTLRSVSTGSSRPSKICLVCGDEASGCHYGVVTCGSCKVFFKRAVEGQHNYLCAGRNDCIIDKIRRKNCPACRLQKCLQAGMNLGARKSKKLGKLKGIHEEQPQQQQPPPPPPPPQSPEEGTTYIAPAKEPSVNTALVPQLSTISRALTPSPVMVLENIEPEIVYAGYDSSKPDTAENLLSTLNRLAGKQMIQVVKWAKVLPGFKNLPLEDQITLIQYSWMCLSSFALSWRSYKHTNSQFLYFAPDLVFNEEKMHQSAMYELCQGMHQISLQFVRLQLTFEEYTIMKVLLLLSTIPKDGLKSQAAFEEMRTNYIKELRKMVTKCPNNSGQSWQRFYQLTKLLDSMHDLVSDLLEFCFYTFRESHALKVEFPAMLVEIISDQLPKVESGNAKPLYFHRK
In short: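 Lysate supernatant of Sf9 cells expressing full-length human MR (20-25 μg protein) was incubated with 0.5 nM [3H]-aldosterone and test compound in molybdate/Tris/phosphate/glycerol buffer, pH 7.5, ~16 h at 4 °C. Bound ligand was filtered and counted by scintillation; IC50 is the concentration halving [3H]-aldosterone binding.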

glucocorticoid receptor = target: T2, glucocorticoid receptor (Homo sapiens, UniProt P04150); assay: Glucocorticoid Receptor Binding Assay ([3H]-dexamethasone, A549 cell extract); conditions: [3H]-dexamethasone binding, read-out: GR Ki
T2 construct: containing 50-200 ug of A549 cell extract and 1.86 nM [^3H]-dexamethasone; host or cells: A549 human lung epithelial cells (sonicated cell extract)
T2 sequence (P04150 1-777): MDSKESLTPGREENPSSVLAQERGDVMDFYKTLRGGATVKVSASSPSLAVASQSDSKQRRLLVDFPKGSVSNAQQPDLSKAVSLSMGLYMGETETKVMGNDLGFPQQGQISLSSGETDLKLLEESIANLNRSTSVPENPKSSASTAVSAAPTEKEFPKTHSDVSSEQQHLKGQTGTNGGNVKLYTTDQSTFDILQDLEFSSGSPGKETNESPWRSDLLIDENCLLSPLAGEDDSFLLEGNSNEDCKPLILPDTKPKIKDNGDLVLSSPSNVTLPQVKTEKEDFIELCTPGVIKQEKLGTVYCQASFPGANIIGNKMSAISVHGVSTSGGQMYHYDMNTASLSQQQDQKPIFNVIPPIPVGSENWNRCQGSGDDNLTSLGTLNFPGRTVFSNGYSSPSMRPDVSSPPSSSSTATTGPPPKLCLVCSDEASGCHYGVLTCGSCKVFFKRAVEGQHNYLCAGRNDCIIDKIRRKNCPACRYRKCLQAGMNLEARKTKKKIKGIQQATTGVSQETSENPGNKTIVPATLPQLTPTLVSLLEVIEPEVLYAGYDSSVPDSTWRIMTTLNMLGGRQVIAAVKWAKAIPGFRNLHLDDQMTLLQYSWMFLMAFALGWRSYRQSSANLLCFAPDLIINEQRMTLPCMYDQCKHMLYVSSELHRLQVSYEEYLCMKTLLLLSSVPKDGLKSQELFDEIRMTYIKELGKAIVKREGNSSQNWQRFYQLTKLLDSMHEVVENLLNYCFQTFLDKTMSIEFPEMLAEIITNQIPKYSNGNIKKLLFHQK
In short: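 A549 cell extract (50–200 ug) incubated with 1.86 nM [3H]-dexamethasone and test compound for 16 h at 4 °C in Tris-HCl pH 7.2 buffer with glycerol and molybdate. Unbound radioligand removed by dextran-coated charcoal, then supernatant bound counts measured by scintillation.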

Row | Compound | Ki (human MR) | Ki (glucocorticoid receptor)
1 | Oc1cccc(C=C2c3ccccc3CCc3ccccc32)c1 [Example 57, 3-(10,11-Dihydro-dibenzo[a,d]cyclohepten-5-ylidenemethyl)-phenol] | < 500 nM | < 500 nM
2 | FC(F)c1ccc(C=C2c3ccccc3CCc3ccccc32)cc1 [Example 73, 5-(4-Difluoromethyl-benzylidene)-10,11-dihydro-5H-dibenzo[a,d]cycloheptene] | < 500 nM | < 1000 nM
3 | OCc1cccc(C=C2c3ccccc3CCc3ccccc32)c1 [Example 75, [3-(10,11-Dihydro-dibenzo[a,d]cyclohepten-5-ylidenemethyl)-phenyl]-methanol] | < 500 nM | < 500 nM
4 | O/N=C/c1ccc(C=C2c3ccccc3CCc3ccccc32)cc1 [Example 79, 4-(10,11-Dihydro-dibenzo[a,d]cyclohepten-5-ylidenemethyl)-benzaldehyde oxime] | < 500 nM | < 500 nM
5 | N#Cc1ccc(C=C2c3ccccc3CCc3ccccc32)cc1 [Example 82, 4-(10,11-Dihydro-dibenzo[a,d]cyclohepten-5-ylidenemethyl)-benzonitrile] | < 500 nM | < 1000 nM
6 | CS(=O)(=O)Nc1cccc(C=C2c3ccccc3CCc3ccccc32)c1 [Example 90, N-[3-(10,11-Dihydro-dibenzo[a,d]cyclohepten-5-ylidenemethyl)-phenyl]-methanesulfonamide] | < 500 nM | < 500 nM
7 | Cc1nc(S(=O)(=O)Nc2cccc(C=C3c4ccccc4CCc4ccccc43)c2)cn1C [Example 96, 1,2-Dimethyl-1H-imidazole-4sulfonic acid [3-(10,11-dihydro-dibenzo[a,d]cyclohepten-5-ylidenemethyl)-phenyl]-amide] | < 500 nM | < 10000 nM
8 | CCCS(=O)(=O)Nc1cccc(C=C2c3ccccc3CCc3ccccc32)c1 [Example 104, Propane-1-sulfonic acid [3-(10,11-dihydro-dibenzo[a,d]cyclohepten-5-ylidenemethyl)-phenyl]-amide] | < 500 nM | < 500 nM
9 | CCCCS(=O)(=O)Nc1cccc(C=C2c3ccccc3CCc3ccccc32)c1 [Example 105, Butane-1-sulfonic acid [3-(10,11-dihydro-dibenzo[a,d]cyclohepten-5-ylidenemethyl)-phenyl]-amide] | < 500 nM | < 500 nM
10 | CCS(=O)(=O)Nc1ccc(C=C2c3ccccc3CCc3ccccc32)cc1 [Example 106, Ethanesulfonic acid [4-(10,11-dihydro-dibenzo[a,d]cyclohepten-5-ylidenemethyl)-phenyl]amide] | < 500 nM | < 500 nM
11 | CCCCS(=O)(=O)Nc1ccc(C=C2c3ccccc3CCc3ccccc32)cc1 [Example 109, Butane-1-sulfonic acid [4-(10,11-dihydro-dibenzo[a,d]cyclohepten-5-ylidenemethyl)-phenyl]-amide] | < 500 nM | < 500 nM
12 | CN(C)S(=O)(=O)Nc1cccc(C=C2c3ccccc3CCc3ccccc32)c1 [Example 112, Dimethylsulfamic acid [3-(10,11-dihydro-dibenzo[a,d]cyclohepten-5-ylidenemethyl)-phenyl]-amide] | < 500 nM | < 500 nM
13 | CC(=O)Nc1cccc(C=C2c3ccccc3CCc3ccccc32)c1 [Example 114, N-[3-(10,11-Dihydro-dibenzo[a,d]cyclohepten-5-ylidenemethyl)-phenyl]-acetamide] | < 500 nM | < 500 nM
14 | CNc1cccc(C=C2c3ccccc3CCc3ccccc32)c1 [Example 118, [3-(10,11-Dihydro-dibenzo[a,d]cyclohepten-5-ylidenemethyl)-phenyl]-methyl-amine] | < 500 nM | < 500 nM
15 | CNc1ccccc1C=C1c2ccccc2CCc2ccccc21 [Example 120, [2-(10,11-Dihydro-dibenzo[a,d]cyclohepten-5-ylidenemethyl)-phenyl]-methyl-amine] | < 500 nM | < 10000 nM
16 | CS(=O)(=O)Nc1cccc(CC2c3ccccc3CCc3ccccc32)c1 [Example 125, N-[3-(10,11-Dihydro-5H-dibenzo[a,d]cyclohepten-5-ylmethyl)-phenyl]-methanesulfonamide] | < 500 nM | < 500 nM
17 | NC(=O)Nc1cccc(C=C2c3ccccc3CCc3ccccc32)c1 [Example 128, [3-(10,11-Dihydro-dibenzo[a,d]cyclohepten-5-ylidenemethyl)-phenyl]-urea] | < 500 nM | < 1000 nM

Other lines, results leading:

Row | Ki (human MR) | Ki (glucocorticoid receptor) | Compound
18 | < 1000 nM | < 500 nM | OCc1ccc(C=C2c3ccccc3CCc3ccccc32)cc1 [Example 76, [4-(10,11-Dihydro-dibenzo[a,d]cyclohepten-5-ylidenemethyl)-phenyl]-methanol]
19 | < 500 nM | < 500 nM | O/N=C/c1ccccc1C=C1c2ccccc2CCc2ccccc21 [Example 77, 2-(10,11-Dihydro-dibenzo[a,d]cyclohepten-5-ylidenemethyl)-benzaldehyde oxime]
20 | < 500 nM | < 1000 nM | O/N=C/c1cccc(C=C2c3ccccc3CCc3ccccc32)c1 [Example 78, 3-(10,11-Dihydro-dibenzo[a,d]cyclohepten-5-ylidenemethyl)-benzaldehyde oxime]
21 | < 500 nM | < 10000 nM | NC(=O)c1cccc(C=C2c3ccccc3CCc3ccccc32)c1 [Example 84, 3-(10,11-Dihydro-dibenzo[a,d]cyclohepten-5-ylidenemethyl)-benzamide]
22 | < 500 nM | < 500 nM | NC(=O)c1ccc(C=C2c3ccccc3CCc3ccccc32)cc1 [Example 85, 4-(10,11-Dihydro-dibenzo[a,d]cyclohepten-5-ylidenemethyl)-benzamide]
23 | < 500 nM | < 500 nM | CCCS(=O)(=O)Nc1ccc(C=C2c3ccccc3CCc3ccccc32)cc1 [Example 108, Propane-1-sulfonic acid [4-(10,11-dihydro-dibenzo[a,d]cyclohepten-5-ylidenemethyl)-phenyl]-amide]
24 | < 500 nM | < 500 nM | CC(C)CS(=O)(=O)Nc1cccc(C=C2c3ccccc3CCc3ccccc32)c1 [Example 110, 2-Methyl-propane-1-sulfonic acid [3-(10,11-dihydro-dibenzo[a,d]cyclohepten-5-ylidenemethyl)-phenyl]-amide]
25 | < 500 nM | < 500 nM | CN(C)S(=O)(=O)Nc1ccc(C=C2c3ccccc3CCc3ccccc32)cc1 [Example 113, Dimethylsulfamic acid [4-(10,11-dihydro-dibenzo[a,d]cyclohepten-5-ylidenemethyl)-phenyl]-amide]
26 | < 500 nM | < 10000 nM | CN(C)c1ccccc1C=C1c2ccccc2CCc2ccccc21 [Example 121, [2-(10,11-Dihydro-dibenzo[a,d]cyclohepten-5-ylidenemethyl)-phenyl]-dimethyl-amine]
